PMC6934184, “Selective DNA-PKcs inhibition extends the therapeutic index of localized radiotherapy and chemotherapy” (The Journal of Clinical Investigation, 2019)

Biological target: T1, KIT N822K (Homo sapiens, UniProt P10721, N822K)
T1 construct: purchased Thermo Fisher Scientific (Life Technologies) SelectScreen
Assay: SelectScreen LanthaScreen
Type: binding
Conditions: read-out: % displacement
Protocol: The in vitro kinase selectivity of NU5455 was determined using the SelectScreen Broad Assay Panel (Thermo Fisher Scientific) involving activity and binding assays (Supplemental Table 1). […] Class IA PI3Ks were measured using the p85α subunit.
Kinase [ATP] % Assay Kinase [ATP] % Assay Kinase [ATP] % Assay Kinase [ATP] % Assay […]
FLT3 Km app 9.1 Z HIPK1 (Myak) Km app 2.8 Z KIT N822K n/a -0.2 L EPHB4 Km app -5.3 Z […]
SGK (SGK1) Km app 8.5 Z MAP4K2 (GCK) Km app 2.7 Z TLK2 n/a -0.3 L STK38 (NDR) n/a -5.9 L
MERTK (cMER) Km app 8.3 Z CDK2/cyclin A Km app 2.7 Z TGFBR1 (ALK5) n/a -0.4 L MATK (HYL) Km app -6.3 Z
FYN Km app 8.3 Z EPHA1 Km app 2.7 Z CLK3 Km app -0.5 Z ABL1 E255K Km app -6.6 Z
TEC n/a 8.1 L CDK2/cyclin E1 n/a 2.7 L MAP3K14 (NIK) n/a -0.5 L STK17A (DRAK1) n/a -6.6 L
KIT V654A n/a 8.1 L TESK2 n/a 2.7 L AKT3 (PKB gamma) Km app -0.5 Z JAK2 JH1 JH2 Km app -6.7 Z
ROS1 Km app 8.0 Z SPHK1 Km app 2.7 A MAP3K9 (MLK1) Km app -0.5 Z PRKACB (PRKAC beta) n/a -6.8 L
FGFR3 K650E Km app 7.9 Z AMPK A2/B1/G1 Km app 2.6 Z IKBKB (IKK beta) Km app -0.6 Z PDGFRA (PDGFR alpha) Km app -6.8 Z
RAF1 (cRAF) Y340D Y341D 100 7.9 Z DYRK3 Km app 2.6 Z CAMK2A (CaMKII alpha) Km app -0.6 Z NEK9 Km app -7.2 Z
PI4KA (PI4K alpha) 10 7.8 A CSNK1D (CK1 delta) Km app 2.6 Z PRKCB1 (PKC beta I) Km app -0.7 Z PDK1 Km app -7.3 Z
HIPK2 Km app 7.8 Z ACVR2A n/a 2.5 L TTK n/a -0.7 L RPS6KB1 (p70S6K) Km app -7.8 Z […]

T1 sequence (P10721 26-976 N822K): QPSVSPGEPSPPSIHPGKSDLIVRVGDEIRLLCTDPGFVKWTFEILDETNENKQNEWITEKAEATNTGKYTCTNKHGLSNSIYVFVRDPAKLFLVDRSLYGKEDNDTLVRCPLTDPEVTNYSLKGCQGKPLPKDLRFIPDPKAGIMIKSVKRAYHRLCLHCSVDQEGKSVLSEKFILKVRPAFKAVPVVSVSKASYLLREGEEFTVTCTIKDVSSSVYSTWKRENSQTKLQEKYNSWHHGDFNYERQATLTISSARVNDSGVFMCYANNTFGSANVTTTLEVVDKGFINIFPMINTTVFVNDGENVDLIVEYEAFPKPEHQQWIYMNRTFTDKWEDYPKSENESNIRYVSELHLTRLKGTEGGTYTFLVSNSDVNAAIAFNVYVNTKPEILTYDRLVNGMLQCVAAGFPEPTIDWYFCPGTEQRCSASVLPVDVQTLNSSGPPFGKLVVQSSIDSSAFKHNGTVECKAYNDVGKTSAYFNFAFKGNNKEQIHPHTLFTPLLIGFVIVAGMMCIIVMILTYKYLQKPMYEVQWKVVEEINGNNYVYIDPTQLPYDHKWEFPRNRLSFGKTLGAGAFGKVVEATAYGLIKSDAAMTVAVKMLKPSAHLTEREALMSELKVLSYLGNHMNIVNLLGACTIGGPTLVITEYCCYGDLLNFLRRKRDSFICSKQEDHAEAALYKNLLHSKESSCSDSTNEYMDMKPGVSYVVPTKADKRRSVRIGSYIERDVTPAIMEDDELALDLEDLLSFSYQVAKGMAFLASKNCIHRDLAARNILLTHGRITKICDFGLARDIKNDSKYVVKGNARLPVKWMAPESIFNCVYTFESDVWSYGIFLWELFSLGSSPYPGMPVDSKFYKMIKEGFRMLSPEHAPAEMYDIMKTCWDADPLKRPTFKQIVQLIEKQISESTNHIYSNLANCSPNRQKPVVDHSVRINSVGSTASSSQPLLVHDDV

SMILES: CN(C(=O)CN1CCOCC1)c1ccc2sc3c(-c4cccc5c(=O)cc(N6CC7CCC(C6)O7)oc45)cccc3c2c1 [NU5455]
- inhibition at 1 µM: -0.2%
